# According to patent US6897319B2, “Useful aroyl pyrrole heteroaryl methanones and methanols” (Ortho-McNeil Pharmaceutical, Inc., priority 2001, dated 2005):
# Marks after values point to notes of the source that are not given here.
# How the values were obtained:
# [1] = tested on: mechanical allodynia after L5 spinal nerve ligation; assay: Chung Model (spinal nerve ligation) antiallodynic effect; format: in vivo; conditions: rat; for % MPE in the Chung Model: oral, screening dose (not given)
# From the text: Procedure for Testing Antiallodynic Effect
# The procedure used to detect the antiallodynic effect of a compound of the present invention for which there is a good correlation with human efficacy for the treatment of pain is the procedure for the measurement of allodynia found in the Chung Model (Kim S. H. and Chung J. M., An Experimental Model for Peripheral Neuropathy Produced by Segmental Spinal Nerve Ligation in the Rat, Pain, 1992, 50, 355-363). The antiallodynic effect of the composition of the present invention in the Chung Model is expressed in % MPE (Maximum Possible Effect).
# Male Sprague-Dawley rats, weighing approximately 200 g each were anesthetized with isoflurane. The spinal nerve at the level of L5 was exposed through an incision just left of the dorsal midline and tightly ligated with 6-0 silk. At various times after surgery, animals were tested for mechanical allodynia with von Frey hairs (monofilaments which are calibrated to bend under a certain amount of pressure, ranging from 0.41 to 15.1 g). In order to calculate a paw withdrawal threshold (PWT), tactile allodynia was measured by recording the pressure at which the affected paw was withdrawn from graded stimuli according to the procedure of S. R. Chaplan, J. W. Pogrel, T. L. Yaksh, Role of Voltage-Dependent Calcium Channel Subtypes in Experimental Tactile Allodynia, J. Pharmacol. Exp. Ther., 1994, 269, 1117-1123. Normal rats can withstand at least 15 g of pressure without responding. Operated rats, however, can respond to as little as 0.25 g of pressure. The surgery was deemed successful if the animal responded with a PWT of less than 4 g of pressure applied to the affected paw. […] The PWT was used to calculate the % maximal possible effect (% MPE) according to the formula: %MPE=100×[(PWT−CT)/(CO−CT)]; wherein PWT is defined as Paw Withdrawal Threshold, CT is Control Threshold, and CO is Cut Off (defined as 15 g).
# The sham operation consisted of a similar surgery; the spinal nerve was visualized without being ligated.
# Compounds selected from Formula (I) and Formula (II) were tested for activity in treating or modulating neuropathic pain by being dissolved or suspended in either water or hydroxypropyl methylcellulose, respectively. Postoperative animals between 14 to 42 days were fasted overnight prior to dosing. Animals were orally dosed and dosage volumes were calculated on a 4 mL/kg basis.
# [2] = tested on: voltage-gated sodium channels; assay: Fluorometric membrane potential assay in SK-N-SH cells (veratridine stimulus, FLIPR); format: cell-based; conditions: 10 μM compound, 5 μM veratridine
# Experimental: Screening Assay for Voltage-Gated Sodium Channel Antagonists Fluorometric Membrane Potential Assay
# (§1) SK-N-SH neuroblastoma cells were maintained in a propagation medium containing modified Eagle's medium and 10% (v/v) fetal bovine serum and were incubated at 37° C. in a 5% CO2 atmosphere. Only cells with fewer than 20 passages were used in each assay. All drugs were prepared in DMSO, and the final concentration of solvent was less than 0.1% (v/v). Veratridine, a toxin that selectively promotes persistent activation of voltage-gated sodium channels, served as the stimulus. 24 hr prior to testing, 1×10^5 cells/well were plated into 96-well plates specifically designed for use in a fluorescent imaging plate reader (FLIPR) (Molecular Devices, Sunnyvale, Calif.)
# Prior to screening, monolayers of cells were loaded with 100 μL/well of a proprietary voltage-sensitive dye (Molecular Devices, Sunnyvale, Calif.) for 30 min at 37° C. After this incubation period, the cells were stimulated with 5 μM veratridine in the presence or absence of investigational compounds (prepared at a final concentration of 10 μM in DMSO). A sample containing 5 μM veratridine and 10 μM tetrodotoxin accounted for nonspecific activity. The fluorescence was monitored by the FLIPR (Molecular Devices) from 10 sec prior to drug addition (50 μL) to 170 sec after drug addition at 25° C. During sodium channel activation, the cells depolarize and the dye associates with cell membranes, resulting in increased fluorescence.
# [3] = tested on: voltage-gated sodium channels; assay: [14C]guanidinium flux assay in SK-N-SH cells (veratridine stimulus); format: cell-based; conditions: 10 μM compound, 100 μM veratridine
# Experimental: Screening Assay for Voltage-Gated Sodium Channel Antagonists [^14C] Guanidinium Flux Assay
# as §1, with “stimulus.” for “stimulus. 24 hr prior to testing, 1×10^5 cells/well were plated into 96-well plates specifically designed for use in a fluorescent imaging plate reader (FLIPR) (Molecular Devices, Sunnyvale, Calif.)”
# SK-N-SH cells were plated at 1×10^5 cells/well in 96-well Cytostar-T microscintillating plates in propagation medium and experiments were performed 6-7 days after plating. Prior to assay, the SK-N-SH cells were washed twice with assay buffer containing 50 mM HEPES (pH 7.45), 5.4 mM potassium chloride, 0.8 mM magnesium chloride, 130 mM choline chloride, 5.5 mM glucose and 0.1 mg/mL bovine serum albumin. Next, the plates were allowed to equilibrate for 10 min at 37° C. in assay buffer. After this incubation period, the cells were stimulated with 100 μM veratridine in the presence or absence of investigational compounds prepared in a 96-well plate (prepared at a final concentration of 10 μM in DMSO). The 96-well dosing plate was prepared by mixing 25 μL of a drug/assay buffer solution per well with 25 μL of 0.7 μCi/mL [^14C]guanidine hydrochloride in assay buffer. 50 μL aliquots from the dosing plate were then added to the cells. One sample containing 100 μM veratridine and 10 μM tetrodotoxin accounted for nonspecific activity. The plates were incubated for 1 hr at room temperature and the radioactivity was counted in a 1450 Microbeta scintillation counter.
# [4] = tested on: maximal electroshock extensor seizure; assay: Mouse maximal electroshock test (MES) anticonvulsant model; format: in vivo; conditions: oral
# Experimental: Procedure for Testing in Mouse Anticonvulsant Model
# The activity of the present compounds as anticonvulsant agents was determined using a standard mouse “maximal electroshock test” (MES). In this test, activity was indicated by a block of the […] extensor seizure, as described by Swinyard, et al. (J. Pharmacol. Exptl. Therap., 1952, 106, 319). A more recent description of current anticonvulsant drug screening is given in Swinyard, et al., in Epilepsia, 1978, 19, 409.
# The anticonvulsant activity of the instant compounds is shown in Table 5 and was evaluated according to the Swinyard (1952) method. The abbreviations used in the table have the following meanings: mpk refers to the dose orally administered in “mg per Kg;” and, ED50 refers to the “50% Effective Dose” orally administered in mpk. The values marked by an * represent the number of mice protected/number of mice tested; therefore, a value of 3/3 represents that the number of mice protected matched the number of mice tested at the indicated dose.
Structure (SMILES),% MPE in the Chung Model [1] [%],% FI at 10 μM (% fluorescence inhibition) [2] [%],% GFI at 10 μM (% guanidinium flux inhibition) [3] [%],ED50 in the Chung Model ([1]; orally administered),"MES Response, number of mice protected/number of mice tested ([4]; @ 300 mpk)","MES Response, number of mice protected/number of mice tested ([4]; @ 30 mpk)","ED50 ([1]; po, orally administered) [mg/kg]","MES Response, number of mice protected/number of mice tested ([4]; @ 100 mpk)"
"Cn1cc(C(O)c2ccncc2)cc1C(=O)c1ccc(Cl)cc1 (stereo not drawn) [Cpd 12, (4-Chlorophenyl)-[4-(hydroxypyridin-4-yl-methyl)-1-methyl-1H-pyrrol-2-yl]-methanone]",3.7,60,,,,,,
"Cc1c(C(=O)c2ccc(F)cc2)c(C)n(C)c1C(=O)c1cccnc1 [Cpd 17, (4-Fluorophenyl)-[1,2,4-trimethyl-5-(pyridine-3-carbonyl)-1H-pyrrol-3-yl]methanone]",59,15,,,,,,
"Cn1cc(C(=O)c2cnc[nH]2)cc1C(=O)c1ccc(Cl)cc1 [Cpd 13, (4-Chlorophenyl)-[4-(3H-imidazole-4-carbonyl)-1-methyl-1H-pyrrol-2-yl]methanone]",,62,24,,,,,
"Cn1cc(C(=O)c2ccncc2)cc1C(=O)c1ccccc1 [Cpd 2, (5-Benzoyl-1-methyl-1H-pyrrol-3-yl)pyridin-4-ylmethanone]",7,76,,,,,,
"Cn1cc(C(O)c2cc[n+]([O-])cc2)cc1C(=O)c1ccc(Cl)cc1 (stereo not drawn) [Cpd 16, (4-Chlorophenyl)-{4-[hydroxy-(1-oxy-pyridin-4-yl)methyl]-1-methyl-1H-pyrrol-2-yl}methanone]",,29,,ED50 = 29 mpk,,,,
"Cn1cc(C(=O)c2cc[n+](C)cc2)cc1C(=O)c1ccc(Cl)cc1.O.O=S(=O)([O-])C(F)(F)F [Cpd 14, 4-[[5-(4-Chlorobenzoyl)-1-methyl-1H-pyrrol-3-yl]carbonyl]-1-methylpyridinium trifluoromethanesulfonate hydrate [5:1]]",,54,14,,,,,
"Cn1cc(C(=O)c2ccc3ccccc3c2)cc1C(=O)c1cccnc1 [Cpd 8, [1-Methyl-5-(pyridine-3-carbonyl)-1H-pyrrol-3-yl]naphthalen-2-yl-methanone]",1.3,67,82,,0/1* @ 300 mpk,,,
"Cn1cc(C(=O)c2ccccn2)cc1C(=O)c1ccc(Cl)cc1 [Cpd 6, [5-(4-Chlorobenzoyl)-1-methyl-1H-pyrrol-3-yl]pyridin-2-yl-methanone]",12,25,74,,,1/1* @ 30 mpk,,
"Cn1cc(C(=O)c2ccc(F)cc2)cc1C(=O)c1ccncc1 [Cpd 11, (4-Fluorophenyl)-[1-methyl-5-(pyridine-4-carbonyl)-1H-pyrrol-3-yl]methanone]",10,39,,,0/1* @ 300 mpk,,,
"Cn1cc(C(=O)c2ccc(F)cc2)cc1C(=O)c1ccccn1 [Cpd 10, (4-Fluorophenyl)-[1-methyl-5-(pyridine-2-carbonyl)-1H-pyrrol-3-yl]methanone]",11,60,46,,0/1* @ 300 mpk,,,
"Cl.Cn1cc(C(=O)c2ccc(F)cc2)cc1C(=O)c1cccnc1 [Cpd 7, (4-Fluorophenyl)-[1-methyl-5-(pyridine-3-carbonyl)-1H-pyrrol-3-yl]methanone Hydrochloride]",,45,57,,,,22,2/3* @ 100 mpk
"Cl.Cn1cc(C(=O)c2cccnc2)cc1C(=O)c1ccc(Cl)cc1.Cn1cc(C(=O)c2cccnc2)cc1C(=O)c1ccc(Cl)cc1.O [Cpd 5, [5-(4-Chlorobenzoyl)-1-methyl-1H-pyrrol-3-yl]pyridin-3-ylmethanone hydrochoride hydrate [2:1:1]]",9,26,55,,,,,
"Cn1cc(C(=O)c2ccc(Cl)cc2)cc1C(=O)c1ccc(Cl)nc1 [Cpd 9, (4-Chlorophenyl)-[5-(6-chloropyridine-3-carbonyl)-1-methyl-1H-pyrrol-3-yl]methanone]",5,26,31,,,,,
"Cc1ccc(C(=O)c2cc(C(=O)c3ccncc3)cn2C)cc1.Cl [Cpd 3, [1-Methyl-5-(4-methylbenzoyl)-1H-pyrrol-3-yl]pyridin-4-ylmethanone Hydrochloride]",5,45,,,,,,3/3* @ 100 mpk
"Cn1cc(C(=O)c2cc[n+]([O-])cc2)cc1C(=O)c1ccc(Cl)cc1 [Cpd 15, (4-Chlorophenyl)-[1-methyl-4-(1-oxypyridine-4-carbonyl)-1H-pyrrol-2-yl]methanone]",7.9,40,4,,,,,
"Cl.Cn1cc(C(=O)c2ccncc2)cc1C(=O)c1cccs1 [Cpd 4, [1-Methyl-5-(thiophene-2-carbonyl)-1H-pyrrol-3-yl]pyridin-4-ylmethanone hydrochloride]",,49,,,0/1* @ 300 mpk,,,
